Assay results: US7781580B2, “Stilbene derivatives as new cancer therapeutic agents” (Virginia Commonwealth University, priority 2007, dated 2010)

Columns and labels:
[1] = system: UCI101 ovarian cancer cells; assay: Alamar Blue cell growth inhibition, UCI101; type: cell-based; conditions: UCI101, 48 hours
Procedure, shortened: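 UCI101 cells at 50% confluence treated 48 h in triplicate with compound (0–10 μM series) or 0.1% DMSO vehicle as 100% control. Alamar Blue added at 1/10 volume for 2 h; absorbance read at 570 and 600 nm, percent growth inhibition from the manufacturer's formula.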

[2] = system: human umbilical vein endothelial cells (HUVECs); assay: HUVEC flow cytometry and tubulin staining; type: cell-based; conditions: 30 nM, 16 hours
Description: (a) Flow cytometry analysis. HUVECs were treated with 30 nM of stilbene 4a for 16 hours followed by staining with PI and subjected to flow cytometry analysis. A large subG0/1 population, representing apoptotic cells, appeared along with reverse of the G1/G2 ratio. (b) Immunofluorescent staining of the HUVECs with antibody against tubulin. Nuclei were counter-stained with DAPI. Stilbene 4a disrupted microtubules at a concentration of 30 nM or higher. Stilbene 4c disrupted microtubules at 100 nM.
In order to establish that stilbenes suppress tumor perfusion by damaging tumor endothelial cells, we first incubated human vascular endothelial cells (HUVECs) with various concentrations of stilbenes in vitro. After 24 hours of incubation, cells were processed for flow cytometry analysis with propidium iodide staining. Cells were also fixed with 2% paraformaldehyde and stained with anti-tubulin antibody to examine tubulin disruption and with DAPI to analyze nuclear fragmentation.

[3] = system: c-kit positive marrow progenitor cells; assay: bone marrow c-kit-positive progenitor cells: cell cycle and colony forming assay; type: cell-based
Description: FIG. 16. (a) Effect of stilbenes in normal bone marrow progenitor cells. c-kit-positive bone marrow mononuclear cells were isolated for incubation with stilbenes 4a or 4c at 0.1 or 0.5 […] for 16 hours. Cells were harvested for fixation and PI staining. Cell cycle analysis and quantification of the subG0/1 population were analyzed by FACScan flow cytometry. The percentages of the apoptotic population were indicated. Shown are the representatives of two independent experiments. (b) Effect of stilbenes in HL60 cells as positive control. HL60 cells were treated with stilbenes 4a or 4c in the same medium as the positive control. (c) Colony forming assay of the stilbene-treated c-kit-positive cells. A fraction of the cells in (a) were diluted and plated on methylcellulose medium at various densities. Cells were incubated for 14 days and the grossly visible colonies were counted. […] Isolated bone marrow c-kit-positive progenitor cells were incubated with DMSO or stilbenes 4a or 4c at 0.1 or 0.5 μM for 16 hours and injected into tail veins of CD45 congenic mice lethally irradiated with 1200 cGy. Mice were monitored for survival and lineage-specific donor engraftment by flow cytometry analysis of peripheral blood. The percentage of donor cells in T, B, and granulocytic series of the recipients were studied at 7 and 14 weeks after transplantation. Stilbene treated c-Kit progenitor cells had the same percentage as the DMSO treated control in all series.
Mouse bone marrow was harvested from femur and tibia of […], subjected to red blood cell lysis, and labeled with anti-c-kit (3C11; CALTAG Laboratories, Burlingame, Calif.) and streptavidin-conjugated microbeads for MACS separation (Miltenyi Biotech, Auburn, Calif.). The c-kit positive marrow progenitor cells were incubated in Iscove's Modified Eagle's Media supplemented with 30% fetal bovine serum, erythropoietin, stem cell factor and interleukin-3 with or without stilbenes 4a or 4c. The ability of long-term proliferation of the c-kit-positive cells was evaluated with colony forming assay. Cells were first treated with DMSO, stilbenes 4a or 4c for 5 h and a fraction of the cells (4000 cells) were plated in the same enriched culture media with methylcellulose for colony forming assays. The grossly visible colonies were counted after 14 days of incubation.

[4] = system: c-kit-positive progenitor cells (engraftment); assay: bone marrow transplantation of stilbene-treated progenitor cells; type: in vivo, mice; conditions: cells incubated at 0.1 or 0.5 μM for 16 hours
Description: FIG. 16. (a) Effect of stilbenes in normal bone marrow progenitor cells. c-kit-positive bone marrow mononuclear cells were isolated for incubation with stilbenes 4a or 4c at 0.1 or 0.5 […] for 16 hours. Cells were harvested for fixation and PI staining. Cell cycle analysis and quantification of the subG0/1 population were analyzed by FACScan flow cytometry. The percentages of the apoptotic population were indicated. Shown are the representatives of two independent experiments. (b) Effect of stilbenes in HL60 cells as positive control. HL60 cells were treated with stilbenes 4a or 4c in the same medium as the positive control. (c) Colony forming assay of the stilbene-treated c-kit-positive cells. […] Cells were incubated for 14 days and the grossly visible colonies were counted. […] Mice were monitored for survival and lineage-specific donor engraftment by flow cytometry analysis of peripheral blood. […]
C57BL/6J (H2b, CD45.2) mice served as bone marrow donors and were between 6-10 weeks of age. […] Peripheral blood engraftment in recipient mice was assessed by flow cytometry analysis for CD3+ (145-2C11; BD Biosciences, San Jose, Calif.) T-cells, B220+ (RA3-6B2) B-cells, Mac1+ (M1/70.15) monocytes, and Gr1+ (8C5) granulocytes and distinguished between donor versus recipient with anti-CD45.1 (A20) and anti-CD45.2 (104) monoclonal antibodies.

COc1cc(/C=C\c2ccc(OC)c(N)c2)cc(OC)c1 [4a, (Z)-5-[2-(3,5-Dimethoxy-phenyl)-vinyl]-2-methoxy-phenylamine]
relative potency / activity [1]: about equal in their potency
apoptosis of HUVECs (flow cytometry) [2]: induced a significant apoptotic population of subG0/1 cells
toxicity to normal bone marrow progenitor cells versus leukemia cells [3]: much less toxic to normal bone marrow progenitor cells
cell cycle of marrow progenitor cells at 0.1 μM ([3]; 0.1 μM, 16 hours): increased the subG0/1 and G2 population slightly
cell cycle of marrow progenitor cells at 0.5 μM ([3]; 0.5 μM, 16 hours): increased the subG0/1 and G2 population slightly
radioprotection of lethally irradiated mice by treated progenitor cells [4]: all mice were rescued from lethal irradiation
